# Data: patent publication US20250025500A1, “PHOSPHATASE INHIBITORS AS NK CELLS MODULATORS FOR THE TREATMENT OF CANCER” (Kanyr Pharma Inc., priority 2021, published 2025)
# Legend:
# Type in all cases: cell-based, Human
# [1] = tested on: NK-92 cells; experiment: qRT-PCR of lytic granule and IFNG mRNA in NK-92; settings: steady state
# Procedure: Total RNA was isolated with Qiagen™ RNeasy® Mini Kit™ without DNase I on column digestion, according to the manufactures protocol. Purified total RNA was resuspended in Dnase free, Rnase free, Protease free sterile water and quantified with NanoDrop™. A260/280 was above 2.0 (data not shown). RNA integrity was checked by gel electrophoresis. 500 ng of RNA was reverse transcribed into cDNA using the SuperScript™ III Reverse Transcriptase Kit™ (Thermo Fisher Scientific™), according to the manufacturer's protocol with random primer and Oligo(dT) 20 primer. Synthesized cDNA was treated with RNaseH. qRT-PCR was performed with BioRad™ CFX96 Real Time PCR Detection™ system using FastStart Essential DNA Green Master™ according to the manufacturer's instructions. TBP and B2M was used as housekeeping genes. Delta delta Cq method was used for analyzing relative expression of gene of interests with normalization to housekeeping genes.
# [2] = tested on: NK-92 cells; experiment: Lytic granule protein expression in NK-92 (flow cytometry, Western blot)
# Procedure: (§1) Total cell lysate was prepared with modified RIPA buffer (1M Tris-HCl (pH 7.5), 5M NaCl, 0.25% sodium deoxycholate, 10% NP-40 and 10 mM sodium fluoride) supplemented with ethylenediaminetetraacetic acid (EDTA)-free protease inhibitor (Roche™) and 2 mM sodium orthovanadate (Sigma-Aldrich™). Protein levels were quantified by bicinchoninic acid (BCA) assay. Protein lysate was separated by 10% SDS-PAGE and Western analysis was performed using primary antibodies listed in the tables below followed with horseradish peroxidase (HRP, 1:10,000, Jackson ImmunoResearch™) conjugated secondary antibodies.
# (§2) NK-92 cells pre-treated with L598 (30 μM) or vehicle control were stimulated with K-562 tumor target cells [effector: target (E:T) at 1:1] or PMA/lonomycin (1 μg/mL each) or no-stimulation control with K-562 complete media, respectively. Anti-CD107a or LAMP-1 antibody (1:100, PE/Cy7 conjugated, clone H4A3, from BioLegend®) was added to cells at the start of degranulation assay. Golgi stop (containing Monensin, 1 μM) and Golgi plug (containing Brefeldin A, 4 μg/mL) were added to cells one hour after degranulation assay started and were kept until the end of the 6-hour-degranulation assay. Intracellular staining of GrB (1:40, PE conjugated, clone QA18A28, from BioLegend®) and PRF (1:40, FITC conjugated, clone B-D48, from BioLegend®) were performed with the Fixation/Permeabilization Solution Kit (BD® Biosciences) according to the manufacture's protocol. Cells were stained with fixable viability dye (1:2000) for 20 mins on ice and in dark, and blocked with FcBlock (1:20, diluted in 1× Perm/Wash buffer, Human truStain FcX from BioLegend®) for 5 mins at room temperature and in dark before intracellular staining. Cell gating and percentage of population quantification was based on no-stimulation control. For kinetics of degranulation assay, measurements were taken over three hours at 15 mins, 30 mins, 60 mins, 120 mins and 180 mins, with L598 (30 μM, three days) treated group and vehicle control group under the condition of tumor target cell K-562 stimulation (E: T at 1:1) or no stimulation. Intracellular cytolytic granule contents GrA, GrB and PRF were measured as mentioned previously.
# [3] = tested on: SMAD2, SOCS1, SOCS3 in NK-92 cells; experiment: Western blot of phospho-SMAD2, SOCS1 and SOCS3 in NK-92; settings: with inhibitor treatment
# Procedure: as §1
# [4] = tested on: NK-92 cells; experiment: Degranulation assay of NK-92 (CD107a, perforin, granzyme B)
# Procedure: as §2
# [5] = tested on: cord blood isolated NK cells; experiment: Surface receptor expression on cord blood NK cells (flow cytometry); settings: 30 μM, with or without K-562 stimulation E:T 1:1, three hours
# From the text: Human cord blood derived NK cells (CB-NK) were kindly provided by Dr. Linda Peltier's Cellular Therapy Laboratory at McGill University Health Center (Montreal, Canada) in frozen format and were stored in liquid nitrogen tank until usage. Briefly, 1×10^7 cells were resuspended in frozen medium consisting of ImmunoCult T Cell Medium supplemented with 10% DMSO final concentration. Frozen CB-NK cells were thawed, and ex vivo expanded at Goodman Cancer Research Center (GCRC) for five days in xeno-free ImmunoCult T cell expansion media supplemented with 10% PlasmaLyte A and freshly with a cytokine cocktail of IL-2 (5 ng/mL), IL-7 (5 ng/mL), IL-15 (5 ng/mL), SCF (15 ng/mL) and FLT3/L (10 ng/mL) every two days. […] On day three, inhibitor L598 and fresh cytokine cocktails were supplemented to the cell media. NK cell population purity and immunophenotype profiling of major activating and inhibitory receptors were assessed upon receiving shipments, after ex vivo expansion for five days and after anti-tumor cytolytic assay.
# [6] = PMA/ionomycin 1 μg/mL each, six hours, vs control
# [7] = three-hours cytolytic assay, K-562 stimulation
substance,measurement,setting,value
7-bromo-6-phosphono(difluoro-methyl)-3-napthalenonitrile [L598],"mRNA expression of perforin, granzyme A, granzyme B and granzyme K",[1]; 30 μM three days,upregulated
same,IFN-γ mRNA,[1]; 30 μM,upregulation
same,thresholds of maximal expression of perforin and granzyme B,"[2]; IL-2 titration, 30 μM",upregulated
same,fold increase of perforin and granzyme B MFI over vehicle control,"[2]; day three, IL-2 1250 IU/mL, 30 μM",approximately two-fold
same,protein expression of perforin and granzyme B,"[2]; gradual increasing concentration, three days",upregulated in a dosage dependent manner
same,"maximal expression of lytic granules after withdrawal, vs control",[2]; inhibitor withdrawn three consecutive days,similar
same,fold change of perforin and granzyme B after withdrawal,"[2]; inhibitor withdrawn three consecutive days, IL-2 titration",around one-fold
same,fold change of intracellular perforin and granzyme over control,"[2]; one-day treatment, IL-2 titration, 30 μM",started improving
same,granzyme A protein expression,[2]; with or without inhibitor treatment,relatively stable
same,"granzyme B expression, treatment vs control group, without IL-2",[2]; without IL-2 stimulation,almost no difference
same,TGF-β1 activated phosphorylation of SMAD2,[3],did not change significantly
same,expression of SOCS1 and SOCS3,[3],did not change
same,percentage of degranulating NK-92 cells (surface CD107a and intracellular lytic granules),"[4]; 30 μM pre-treatment, K-562 stimulation six hours, vs control",smaller percentage
same,dead tumor target K-562 cells in degranulation assay,"[4]; K-562 stimulation E:T 1:1, vs control cells",more tumor target K-562 cells were found dead
same,"degranulated NK-92 cells (CD107a+, Perforin− or Granzyme B−) under PMA and ionomycin",[4]; [6],less
same,degranulating NK-92 cells under PMA and ionomycin,[4]; [6],more
same,"percentage of CD107a−, Perforin+ or CD107a−, Granzyme B+ population","[4]; after six-hours K-562 stimulation, vs control",larger percentage
same,time from which granzyme B is degranulated more rapidly,[4]; [7],60 min
same,time from which perforin is degranulated more rapidly,[4]; [7],30 min
same,CD69 and activating receptor expression on cord blood NK cells,[5],upregulation
